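Briefly, cells in 96-well plates were exposed to five compound concentrations for 48 h, and endpoints were estimated by linear interpolation. TGI: concentration producing complete growth inhibition.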
Assays:
Test in all cases: NCI tumour cell line growth inhibition, 48 h
[1] = tested on: TK-10 renal
[2] = tested on: XF 498 CNS
[3] = tested on: SW-620 colon
[4] = tested on: SK-MEL-28 melanoma
[5] = tested on: COLO 205 colon
[6] = tested on: UACC-257 melanoma
[7] = tested on: NCI-H460 lung
[8] = tested on: U251 CNS
[9] = tested on: HT29 colon
[10] = tested on: SF-295 CNS
[11] = tested on: 786-0 renal
[12] = tested on: HOP-92 NSCLC
[13] = tested on: NCI-H522 lung
[14] = tested on: KM20L2 colon
[15] = tested on: CCRF-CEM leukemia
[16] = tested on: SNB-75 CNS
[17] = tested on: CAKI-1 renal
[18] = tested on: UO-31 renal
[19] = tested on: MALME-3M melanoma
[20] = tested on: IGROV1 ovarian
[21] = tested on: RXF 393 renal
[22] = tested on: LOX IMVI melanoma
[23] = tested on: HOP-18 NSCLC
[24] = tested on: ACHN renal
[25] = tested on: HCC-2998 colon
[26] = tested on: DMS 273 small cell lung
[27] = tested on: OVCAR-4 ovarian
[28] = tested on: K-562 leukemia
[29] = tested on: M19-MEL melanoma
[30] = tested on: HCT-15 colon
[31] = tested on: SK-OV-3 ovarian
[32] = tested on: OVCAR-8 ovarian
[33] = tested on: HOP-62 NSCLC
[34] = tested on: EKVX NSCLC
[35] = tested on: NCI-H23 lung
[36] = tested on: KM12 colon
[37] = tested on: SF-539 CNS
[38] = tested on: M14 melanoma
[39] = tested on: SF-268 CNS
[40] = tested on: MOLT-4 leukemia
[41] = tested on: OVCAR-3 ovarian
[42] = tested on: DMS 114 small cell lung
[43] = tested on: A498 renal
[44] = tested on: DLD-1 colon
[45] = tested on: SN12C renal
[46] = tested on: UACC-62 melanoma
[47] = tested on: SNB-19 CNS
[48] = tested on: LXFL 529 NSCLC
[49] = tested on: SK-MEL-2 melanoma
[50] = tested on: A549 NSCLC
[51] = tested on: SNB-78 CNS
[52] = tested on: RXF-631 renal
[53] = tested on: HL-60(TB) leukemia
[54] = tested on: OVCAR-5 ovarian
[55] = tested on: SK-MEL-5 melanoma
[56] = tested on: RPMI-8226 leukemia
[57] = tested on: HCT-116 colon
[58] = tested on: NCI-H226 lung
[59] = tested on: SR leukemia

Measured: TGI

CN(CCc1ccccn1)c1nc(=[N+](C)C)ss1
not listed: [57] | [58] | [59]
> 100 µM: all other assays above

Cc1nc(-c2ccccc2)cc2c1c(=O)oc1ccccc12
not listed: [1] | [2] | [22] | [29] | [43]
> 100 µM: all other assays above

— PubChem BioAssay (NCI)
